Experimental data taken from PubChem BioAssay AID608 (Sanford-Burnham Center for Chemical Genomics, 2007).
Activity calls are given as the source filed them. No rule for the calls is given here.

Each molecule was assayed against Peptidyl-prolyl cis-trans isomerase FKBP1A (Homo sapiens) (UniProt P62942) (assay: small-molecule binding to FKBP12 – biophysical, NMR detection (AID 608)). Details: purified FKBP12.
Chain of Peptidyl-prolyl cis-trans isomerase FKBP1A (Homo sapiens) (P62942 whole entry, looked up): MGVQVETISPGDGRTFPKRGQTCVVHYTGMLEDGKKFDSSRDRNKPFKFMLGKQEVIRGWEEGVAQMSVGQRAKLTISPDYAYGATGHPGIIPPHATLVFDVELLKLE
In the case of `O=C(O)c1ccc(CN2CCCCC2)o1`, the Kd is reported as > 4 mM (inactive). With `CN(C)CCNC(CC(=O)Nc1ccccc1)C(=O)O` (configuration not stated) the Kd was > 4 mM (inactive). `COC(=O)[C@@H]1C(O)CC[C@H]2CN3CCc4c([nH]c5ccccc45)[C@@H]3C[C@@H]21` (some centres not stated) was tested, and the Kd was > 4 mM (inactive). In the case of `COC1C(O)C(O)C(O)[C@@H](O)C1O` (some centres not stated), the Kd is reported as > 4 mM (inactive). In the case of `COc1cc(CNCc2cccs2)ccc1OCC(=O)N1CCOCC1`, the Kd is reported as > 4 mM (inactive). For `Cc1cc(OCC(=O)N2CCOCC2)ccc1NC(=O)OCc1ccccc1`, the Kd was > 4 mM (inactive). `CC(C)(C)CC(=O)NC1=NCCS1` was tested, and the Kd was > 4 mM (inactive). In the case of `O=C(/C=C/c1ccccc1)c1ccc(O)cc1`, the Kd is reported as > 4 mM (inactive). In the case of `Nc1ccc2[nH]ncc2c1`, the Kd is reported as > 4 mM (inactive). `COc1ccc2c(c1)c1n[nH]c(=S)nc1n2C` was tested, and the Kd was > 4 mM (inactive). With `COc1ccc(O)c(-c2cn[nH]c2-c2cccs2)c1` the Kd was > 4 mM (inactive). With `CC(=O)c1sc2nc(N)nn2c1C` the Kd was > 4 mM (inactive). In the case of `N[C@@H](Cc1cc(I)c(Oc2cc(I)c(O)c(I)c2)c(I)c1)C(=O)O`, the Kd is reported as > 4 mM (inactive). In the case of `CCn1ccc(C(=O)Nc2nccs2)n1`, the Kd is reported as > 4 mM (inactive). With `C=C1C(N)CC2CC1C2(C)C` (configuration not stated) the Kd was > 4 mM (inactive). With `O=C1C2C3C=CC(C3)C2C(=O)N1c1cccnc1` (configuration not stated) the Kd was > 4 mM (inactive). With `COc1ccccc1NC(=O)c1ccc(C)s1` the Kd was > 4 mM (inactive). With `Nc1nc2ccccc2n1CCN1CCCC1` the Kd was > 4 mM (inactive). With `O=S(=O)(N1CCCCC1)n1c(Cc2ccccc2)nc2ccccc21` the Kd was > 4 mM (inactive). For `Nc1ccc(OC(F)(F)F)cc1`, the Kd was > 4 mM (inactive). In the case of `CC(=O)Nc1cc(N2C(=O)C=CC2=O)ccc1Cl`, the Kd is reported as > 4 mM (inactive). With `CC1(C)C(=O)C=C[C@@]2(C)C1C[C@@H](O)[C@]1(C)C2CC[C@@]2(C)[C@H](c3ccoc3)OC(=O)[C@H]3O[C@]321` (some centres not stated) the Kd was > 4 mM (inactive). `O=C(O)Cn1cc(C(=O)c2cccs2)c2ccccc21` was tested, and the Kd was > 4 mM (inactive). `CCOC(=O)Nc1ccc2c(C)cc(=O)oc2c1` was tested, and the Kd was > 4 mM (inactive). In the case of `O=C1NC(=S)N/C1=C\c1ccccc1`, the Kd is reported as > 4 mM (inactive). With `NC(=O)c1ccc(-c2ccccn2)s1` the Kd was > 4 mM (inactive). In the case of `CCN(CC)c1nc2n(c(=O)n1)CCO2`, the Kd is reported as > 4 mM (inactive). `Cc1ccc(-c2cc(C(=O)N3CCCC3)no2)cc1` was tested, and the Kd was > 4 mM (inactive). `CCOc1nc(C)ccc1-c1noc(-c2ccncc2)n1` was tested, and the Kd was > 4 mM (inactive). `O=C(NC1CSCC1O)c1ccccc1` (configuration not stated) was tested, and the Kd was > 4 mM (inactive). `O=C(O)c1coc2c1C(=O)CCC2` was tested, and the Kd was > 4 mM (inactive). With `CCC(C)C(=O)O[C@H]1[C@H](O)C2C(CN3CC(C)CCC3[C@@]2(C)O)C2C[C@]34O[C@]5(O)C(OC(=O)C(C)(O)C(C)O)CC[C@@]3(C)C5C(OC(C)=O)[C@@H](OC(C)=O)C4[C@@]21O` (some centres not stated) the Kd was > 4 mM (inactive). `O=c1ccn(Cc2ccccc2)c(=O)[nH]1` was tested, and the Kd was > 4 mM (inactive). For `CC(C)=CCCC1(C)C=Cc2c(O)c3c(c(CC=C(C)C)c2O1)OC12C(=CC4CC1C(C)(C)OC2(C/C=C(/C)C(=O)O)C4=O)C3=O` (configuration not stated), the Kd was > 4 mM (inactive). `O=C1CC[C@]23/C=C/C(=O)NCCCCNCCCNC(=O)/C=C/c4ccc(c2c4)O[C@@H]3C1` was tested, and the Kd was > 4 mM (inactive). With `O=C(CC1Nc2ccccc2NC1=O)Nc1ccc(O)cc1` (configuration not stated) the Kd was > 4 mM (inactive). With `Cn1nc(C(=O)N2CCOCC2)c2ccccc2c1=O` the Kd was > 4 mM (inactive). With `Cc1noc(C)c1C(=O)N1CCc2ccccc21` the Kd was > 4 mM (inactive). In the case of `O=C1CSC2(CN3CCC2CC3)N1` (configuration not stated), the Kd is reported as > 4 mM (inactive). In the case of `O=C(Nc1cccnc1)c1ccc(Br)s1`, the Kd is reported as > 4 mM (inactive). In the case of `Cc1ccc(NS(=O)(=O)c2ccc(OCC(=O)N3CCOCC3)cc2)cc1`, the Kd is reported as “inactive”. `O=C(O)C1CNc2ccccc2O1` (configuration not stated) was tested, and the Kd was > 4 mM (inactive). `O=C(Nc1cccc(C(F)(F)F)c1)c1cccnc1` was tested, and the Kd was > 4 mM (inactive). With `COc1cc(C)c2c(c1C=O)Oc1c(c(C)c(O)c3c1C(O)OC3=O)OC2=O` (configuration not stated) the Kd was > 4 mM (inactive). In the case of `O=C1C=CC(=O)c2c(O)cccc21`, the Kd is reported as > 4 mM (inactive). In the case of `O=C(Nc1ccccc1CO)c1ccccc1F`, the Kd is reported as > 4 mM (inactive). With `NCc1csc(-c2cccs2)n1` the Kd was > 4 mM (inactive). For `COc1ccc(NC(=O)CCCC(=O)O)c(OC)c1`, the Kd was > 4 mM (inactive). `NC(=O)c1ccc(NC(=O)c2ccco2)cc1` was tested, and the Kd was > 4 mM (inactive). With `O=C1C=CC(=O)N1c1ccccc1O` the Kd was > 4 mM (inactive). `Nc1ccc2c(c1)C(=O)OC2` was tested, and the Kd was > 4 mM (inactive). With `COc1ccc(-c2cc(=O)c3c(O)cc(O)c(-c4cc(-c5cc(=O)c6c(O)cc(O)cc6o5)ccc4OC)c3o2)cc1` the Kd was > 4 mM (inactive). In the case of `COc1ccc(C2NC(C(=O)O)CS2)cc1` (configuration not stated), the Kd is reported as > 4 mM (inactive). In the case of `OCc1ccc(-n2cncn2)cc1`, the Kd is reported as > 4 mM (inactive). In the case of `COc1ccc2[nH]c(O)c(NC(C)=O)c2c1`, the Kd is reported as > 4 mM (inactive). In the case of `Cc1occc1C(=O)Nc1ccc(C(N)=O)cc1`, the Kd is reported as > 4 mM (inactive). For `O=C(NCc1cccs1)c1nn2cccnc2c1Cl`, the Kd was > 4 mM (inactive). For `O=C(c1ccc(F)cc1)N1CCOCC1`, the Kd was > 4 mM (inactive). `CCC(=O)NC(=S)Nc1ccc(O)cc1` was tested, and the Kd was > 4 mM (inactive). In the case of `CC(=O)OC(C)(C)[C@@H]1Cc2cc3ccc(=O)oc3cc2O1`, the Kd is reported as > 4 mM (inactive). In the case of `O=C1CSC(=Nc2ccccc2)N1`, the Kd is reported as > 4 mM (inactive). With `O=[N+]([O-])c1ccc(NS(=O)(=O)N2CCCCC2)cc1` the Kd was 0.06 mM. With `CC1(C)CC23C(=O)CCC(O)C2(C)CCC13` (configuration not stated) the Kd was > 4 mM (inactive). For `NC(c1ccccc1)c1ccccn1` (configuration not stated), the Kd was > 4 mM (inactive). With `CC(=O)c1cccc(NC(=O)C=C(C)C)c1` the Kd was > 4 mM (inactive). For `Cc1nc2ccccc2c(=O)n1/N=C/c1ccncc1`, the Kd was > 4 mM (inactive). For `CC(=O)c1cccc(NS(=O)(=O)N(C)C)c1`, the Kd was > 4 mM (inactive). With `Cc1cc(C(=O)N2CCN(c3ccccn3)CC2)c(C)o1` the Kd was > 4 mM (inactive). With `O=C(NCCO)NC(=S)c1ccccc1` the Kd was > 4 mM (inactive). For `O=C(Nc1ccccc1N1CCCC1)c1cccnc1`, the Kd was > 4 mM (inactive). In the case of `Nc1ccc(O)cn1`, the Kd is reported as > 4 mM (inactive). In the case of `C[C@@H]1C(=O)OC2[C@H](O)C34[C@@H]5OC(=O)[C@@]3(O[C@@H]3OC(=O)[C@H](O)[C@@]34[C@H](C(C)(C)C)[C@H]5O)[C@]21O` (some centres not stated), the Kd is reported as > 4 mM (inactive). For `Nc1nc(SCc2ccccc2)ns1`, the Kd was > 4 mM (inactive). For `COc1ccc2[nH]cc(CCNC(C)=O)c2c1`, the Kd was > 4 mM (inactive). In the case of `CN1CCN(c2ncnc3nc[nH]c23)CC1`, the Kd is reported as > 4 mM (inactive). For `CN(C)S(=O)(=O)NCc1ccc2c(c1)OCO2`, the Kd was > 4 mM (inactive). `OC1CC(c2ccccc2)NC2(CCCC2)C1` (configuration not stated) was tested, and the Kd was > 4 mM (inactive). For `O=C(c1ccco1)N1CCNCC1`, the Kd was > 4 mM (inactive). `CC(=O)Oc1cc2c(c(C)c1OC(C)=O)CC=C1[C@@]2(C)CC[C@@]2(C)C3C[C@](C)(C(=O)O)CC[C@]3(C)CC[C@]12C` (some centres not stated) was tested, and the Kd was > 4 mM (inactive). In the case of `O=C1N=c2ccccc2=C1c1sc(=S)[nH]c1O`, the Kd is reported as > 4 mM (inactive). For `COc1ccc(-c2nnsc2N)cc1`, the Kd was > 4 mM (inactive). For `O=C(CCc1ccc(O)cc1)c1c(O)cc(O)cc1O[C@@H]1O[C@H](CO)[C@@H](O)[C@H](O)[C@H]1O`, the Kd was > 4 mM (inactive). `C/C=C(/C)C(=O)O[C@@H]1Cc2c(ccc3ccc(=O)oc23)OC1(C)C` was tested, and the Kd was > 4 mM (inactive). For `c1cnc(N2CCSCC2)nc1`, the Kd was > 4 mM (inactive). With `CCOC(=O)c1ccc(F)c(F)c1` the Kd was > 4 mM (inactive). In the case of `Cn1c(O)c(/C=C2\C=CC=N2)c(=O)[nH]c1=S`, the Kd is reported as > 4 mM (inactive). For `CN(C)c1nc(N2CCOCC2)c2cnn(C)c2n1`, the Kd was > 4 mM (inactive). With `Nc1ccc(CN2CCS(=O)(=O)CC2)cc1` the Kd was > 4 mM (inactive). With `O=C1C2C3C=CC(C3)C2C(=O)N1c1ccccn1` (configuration not stated) the Kd was > 4 mM (inactive). In the case of `Cn1nnc2cc(C(=O)NCc3ccco3)ccc21`, the Kd is reported as > 4 mM (inactive). In the case of `NC(=O)NC1NC(=O)NC1=O` (configuration not stated), the Kd is reported as > 4 mM (inactive). `Nc1ccc(N2CCCCC2)cc1` was tested, and the Kd was > 4 mM (inactive). `Cc1ccccc1NS(=O)(=O)c1ccc(F)cc1` was tested, and the Kd was > 4 mM (inactive). For `NC(=O)c1c(Cl)nsc1-c1ccccc1Cl`, the Kd was > 4 mM (inactive). With `COC(=O)CCSCC(=O)Nc1nnc(C)s1` the Kd was > 4 mM (inactive). In the case of `O=C(O)CCS(=O)(=O)c1ccccc1`, the Kd is reported as > 4 mM (inactive). With `COC(=O)c1ccc(N2CCCC2)nc1` the Kd was > 4 mM (inactive). `CCC(C)C(=O)OC1[C@@H]2CC3=C4CC(=O)O[C@@H](c5ccoc5)[C@]4(C)CCC3C(C)(C2=O)[C@@H](CC(=O)OC)C1(C)C` (some centres not stated) was tested, and the Kd was > 4 mM (inactive). For `O=c1[nH]c2ccc(S(=O)(=O)NC3CC3)cc2[nH]1`, the Kd was > 4 mM (inactive). For `Cn1c(=O)c2c(n(C)c1=O)=NC1(CCCCC1)N=2`, the Kd was > 4 mM (inactive). With `O=C(O)c1ccc(NCc2cccnc2)cc1` the Kd was > 4 mM (inactive). For `COc1cc(/C=C2/NC(=S)NC2=O)cc(Cl)c1O`, the Kd was > 4 mM (inactive). With `O=C(NCc1ccccn1)c1ccc(Cl)cc1Cl` the Kd was > 4 mM (inactive). In the case of `O=C(O)CCC(=O)Nc1ccccn1`, the Kd is reported as > 4 mM (inactive). `O=C(c1cc2ccccc2o1)N1CCCCCC1` was tested, and the Kd was 0.184 mM. `Fc1ccc(N2CCNCC2)cc1` was tested, and the Kd was > 4 mM (inactive). With `COc1ccc(/C=C2\SC(N)=NC2=O)cc1` the Kd was > 4 mM (inactive). For `NS(=O)(=O)c1ccc(NC(=O)C(F)(F)F)cc1`, the Kd was > 4 mM (inactive). In the case of `COc1ccc2ccc(=O)oc2c1`, the Kd is reported as > 4 mM (inactive). `CC(C)NC(=O)c1cc(-n2cnnc2)ccc1Cl` was tested, and the Kd was > 4 mM (inactive). For `CC1=CC2C(CC1=O)C(C)=CCC2C(C)C` (configuration not stated), the Kd was > 4 mM (inactive). In the case of `Cc1cc(C)n(S(=O)(=O)c2cc(C)c(C)cc2C)n1`, the Kd is reported as > 4 mM (inactive). In the case of `COc1ccc2c3c([nH]c2c1)C(C)=NCC3`, the Kd is reported as > 4 mM (inactive). For `CN1CCCCC1c1ccc(-c2cccnc2)nc1` (configuration not stated), the Kd was > 4 mM (inactive). `O=C(O)c1ccc2[nH]c3c(c2c1)CSCC3` was tested, and the Kd was > 4 mM (inactive). In the case of `Cc1oc(-c2ccccc2)cc1CO`, the Kd is reported as > 4 mM (inactive). For `COC(=O)C(O)c1ccccc1` (configuration not stated), the Kd was > 4 mM (inactive).
